# Earlier results as cited in patent US5869538A, “Method for enhancing transport of gases to tissues” (priority 1996, dated 1999).
# Details: for Diffusivities / Solubilities: Table 2, simulation parameter
Diffusivities,Solubilities,N2O solubility,Compound
1.05 × 10^-3 cm^2 /min,2.35 mlml^-1 100 kPa^-1,,"O=C=O [CO2, carbon dioxide]"
1.32 × 10^-3 cm^2 /min,,,"N#N [N2, nitrogen]"
,,0.45 ml N2 O /ml blood/atm,"[N-]=[N+]=O [N2O, reference compound]"
1.24 × 10^-3 cm^2 /min,0.0227 mlml^-1 100 kPa^-1,,"O=O [O2, oxygen]"
